Legend:
Test in all cases: viability relative to DMSO control (fraction); higher = less drug effect (more viable cells)
Conditions in all cases: 48 h
[1] = compound: C#CCC(Cc1cnc2nc(N)nc(N)c2n1)c1ccc(C(=O)N[C@@H](CCC(=O)O)C(=O)O)cc1 [Pralatrexate]
In short: (§1)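 The cells were primary mononuclear tumour cells, either fresh or cryopreserved, isolated by Ficoll from blood or bone marrow or derived from processed lymph node. Each well of a 384-well plate received 4 × 10^4 cells onto compounds pre-plated at five concentrations, with one well per concentration. The medium was RPMI-1640 with penicillin/streptomycin, L-glutamine and human serum, and plates stood at 37 °C and 5% CO2 for 48 h. Viability is reported as CellTiter-Glo luminescence relative to the median of 16 inner DMSO wells.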

[2] = compound: CC(=O)[C@]1(O)Cc2c(O)c3c(c(O)c2[C@@H](O[C@H]2C[C@H](N)[C@H](O)[C@H](C)O2)C1)C(=O)c1ccccc1C3=O [Idarubicin]
In short: as §1

[3] = compound: CCOc1cc(C(=O)N2CCC(N3CCN(C)CC3)CC2)ccc1Nc1ncc2c(n1)N(C1CCCC1)c1ccccc1C(=O)N2C [ERK5-IN-1]
In short: as §1

[4] = compound: CC[C@H](NC(=O)[C@H](C)NC)C(=O)N1C[C@@H](O)C[C@H]1Cc1c(-c2[nH]c3cc(F)ccc3c2C[C@@H]2C[C@H](O)CN2C(=O)[C@H](CC)NC(=O)[C@H](C)NC)[nH]c2cc(F)ccc12 [Birinapant]
In short: as §1

[5] = compound: CN(C)C(=O)c1cc2cnc(Nc3ccc(N4CCNCC4)cn3)nc2n1C1CCCC1 [Ribociclib]
In short: as §1

[6] = compound: COC1=CC(c2cc3ccccc3[nH]2)=N/C1=C\c1[nH]c(C)cc1C [Obatoclax mesylate]
In short: as §1

[7] = compound: COc1c(Cl)cc2c([nH]c3cnccc32)c1NC(=O)c1cccnc1C [MLN-120B]
In short: as §1

[8] = compound: Cc1[nH]c2ccccc2c1CCNCc1ccc(/C=C/C(=O)NO)cc1 [Panobinostat]
In short: as §1

[9] = compound: Cc1ccc(NC(=O)c2ccc(CN3CCN(C)CC3)cc2)cc1Nc1nccc(-c2cccnc2)n1 [Imatinib]
In short: as §1

[10] = compound: NC(=O)Nc1cc(-c2cccc(F)c2)sc1C(=O)N[C@H]1CCCNC1 [AZD7762]
In short: as §1

[11] = compound: NC(=O)c1ccc(I)c([N+](=O)[O-])c1 [Iniparib]
In short: as §1

[12] = compound: Nc1nc(Cl)nc2c1ncn2[C@H]1C[C@H](O)[C@@H](CO)O1 [Cladribine]
In short: as §1

[13] = compound: O=C(CCCCCCC(=O)Nc1ccccc1)NO [Vorinostat]
In short: as §1

[14] = compound: O=C(NCC1(c2nc(-c3ccccc3)cs2)CCOCC1)c1cccc(-c2noc(C(F)(F)F)n2)c1 [TMP269]
In short: as §1

[15] = compound: OC[C@H]1O[C@@H](n2cnc3c2N=CNC[C@H]3O)C[C@@H]1O [Pentostatin]
In short: as §1

Work on primary T-PLL patient cells (S008) yielded a viability ([1]; 0.024 µM) of 1.09, a viability ([1]; 0.12 µM) of 0.978 and a viability ([1]; 0.6 µM) of 0.965. For the same test system, the viability ([1]; 3 µM) was 0.982, the viability ([1]; 15 µM) was 0.971 and the viability ([2]; 0.024 µM) was 0.918. For the same test system, the viability ([2]; 0.12 µM) was 0.591, the viability ([2]; 0.6 µM) was 0.128 and the viability ([2]; 3 µM) was 0.0427. For the same test system, the viability ([2]; 15 µM) was 0.03, the viability ([3]; 0.024 µM) was 0.932 and the viability ([3]; 0.12 µM) was 0.957. For the same test system, the viability ([3]; 0.6 µM) was 0.985, the viability ([3]; 3 µM) was 0.958 and the viability ([3]; 15 µM) was 0.754. For the same test system, the viability ([4]; 0.0008 µM) was 0.887, the viability ([4]; 0.004 µM) was 0.915 and the viability ([4]; 0.02 µM) was 0.925. For the same test system, the viability ([4]; 0.1 µM) was 0.897, the viability ([4]; 0.5 µM) was 0.91 and the viability ([5]; 0.024 µM) was 1.04. For the same test system, the viability ([5]; 0.12 µM) was 1.03, the viability ([5]; 0.6 µM) was 1.05 and the viability ([5]; 3 µM) was 1.01. It also gave a viability ([5]; 15 µM) of 0.902, a viability ([6]; 0.024 µM) of 1.02 and a viability ([6]; 0.12 µM) of 0.899. For the same test system, the viability ([6]; 0.6 µM) was 0.718, the viability ([6]; 3 µM) was 0.563 and the viability ([6]; 15 µM) was 0.175. For the same test system, the viability ([7]; 0.024 µM) was 1.03, the viability ([7]; 0.12 µM) was 1.01 and the viability ([7]; 0.6 µM) was 1.03. For the same test system, the viability ([7]; 3 µM) was 1, the viability ([7]; 15 µM) was 0.963 and the viability ([8]; 0.00064 µM) was 0.965. It also gave a viability ([8]; 0.0032 µM) of 0.985, a viability ([8]; 0.016 µM) of 0.895 and a viability ([8]; 0.08 µM) of 0.818. It also gave a viability ([8]; 0.4 µM) of 0.723, a viability ([9]; 0.08 µM) of 0.971 and a viability ([9]; 0.4 µM) of 1.07. It also gave a viability ([9]; 2 µM) of 0.994, a viability ([9]; 10 µM) of 0.978 and a viability ([10]; 0.024 µM) of 0.989. For the same test system, the viability ([10]; 0.12 µM) was 1.03, the viability ([10]; 0.6 µM) was 0.963 and the viability ([10]; 3 µM) was 0.971. For the same test system, the viability ([10]; 15 µM) was 0.933, the viability ([11]; 0.024 µM) was 1.11 and the viability ([11]; 0.12 µM) was 0.994. For the same test system, the viability ([11]; 0.6 µM) was 0.915, the viability ([11]; 3 µM) was 0.962 and the viability ([11]; 15 µM) was 0.94. For the same test system, the viability ([12]; 0.024 µM) was 0.925, the viability ([12]; 0.12 µM) was 0.774 and the viability ([12]; 0.6 µM) was 0.489. The viability ([12]; 3 µM) was 0.407, the viability ([12]; 15 µM) was 0.363 and the viability ([13]; 0.016 µM) was 1.01. It also gave a viability ([13]; 0.08 µM) of 0.989, a viability ([13]; 0.4 µM) of 1.07 and a viability ([13]; 2 µM) of 0.984. It also gave a viability ([13]; 10 µM) of 0.851, a viability ([14]; 0.024 µM) of 1.04 and a viability ([14]; 0.12 µM) of 1.01. For the same test system, the viability ([14]; 0.6 µM) was 1.01, the viability ([14]; 3 µM) was 1.01 and the viability ([14]; 15 µM) was 0.947. The viability ([15]; 0.03 µM) was 1.04, the viability ([15]; 0.15 µM) was 0.989 and the viability ([15]; 0.75 µM) was 1. It also gave a viability ([15]; 3.75 µM) of 0.892 and a viability ([15]; 18.76 µM) of 0.917.
primary AML patient cells (S012) gave a viability ([1]; 0.024 µM) of 1.11, a viability ([1]; 0.12 µM) of 0.816 and a viability ([1]; 0.6 µM) of 0.787. The viability ([1]; 3 µM) was 0.912, the viability ([1]; 15 µM) was 0.752 and the viability ([2]; 0.024 µM) was 0.955. For the same test system, the viability ([2]; 0.12 µM) was 0.876, the viability ([2]; 0.6 µM) was 0.746 and the viability ([2]; 3 µM) was 0.0405. The viability ([2]; 15 µM) was 0.0381, the viability ([3]; 0.024 µM) was 1.11 and the viability ([3]; 0.12 µM) was 0.967. It also gave a viability ([3]; 0.6 µM) of 0.965, a viability ([3]; 3 µM) of 0.445 and a viability ([3]; 15 µM) of 0.0519. For the same test system, the viability ([4]; 0.0008 µM) was 0.942, the viability ([4]; 0.004 µM) was 0.978 and the viability ([4]; 0.02 µM) was 0.907. For the same test system, the viability ([4]; 0.1 µM) was 0.771, the viability ([4]; 0.5 µM) was 0.519 and the viability ([5]; 0.024 µM) was 1.11. For the same test system, the viability ([5]; 0.12 µM) was 1.07, the viability ([5]; 0.6 µM) was 1.17 and the viability ([5]; 3 µM) was 1.05. It also gave a viability ([5]; 15 µM) of 0.861, a viability ([6]; 0.024 µM) of 0.943 and a viability ([6]; 0.12 µM) of 0.944. For the same test system, the viability ([6]; 0.6 µM) was 0.769, the viability ([6]; 3 µM) was 0.638 and the viability ([6]; 15 µM) was 0.177. For the same test system, the viability ([7]; 0.024 µM) was 1.01, the viability ([7]; 0.12 µM) was 1.06 and the viability ([7]; 0.6 µM) was 1.1. The viability ([7]; 3 µM) was 1.07, the viability ([7]; 15 µM) was 0.965 and the viability ([8]; 0.00064 µM) was 1. For the same test system, the viability ([8]; 0.0032 µM) was 1.03, the viability ([8]; 0.016 µM) was 0.662 and the viability ([8]; 0.08 µM) was 0.0941. It also gave a viability ([8]; 0.4 µM) of 0.0613, a viability ([9]; 0.016 µM) of 1.1 and a viability ([9]; 0.08 µM) of 0.988. For the same test system, the viability ([9]; 0.4 µM) was 0.995, the viability ([9]; 2 µM) was 0.982 and the viability ([9]; 10 µM) was 1. The viability ([10]; 0.024 µM) was 1, the viability ([10]; 0.12 µM) was 1.01 and the viability ([10]; 0.6 µM) was 0.972. For the same test system, the viability ([10]; 3 µM) was 0.889, the viability ([10]; 15 µM) was 0.287 and the viability ([11]; 0.024 µM) was 0.993. The viability ([11]; 0.12 µM) was 1.08, the viability ([11]; 0.6 µM) was 1.09 and the viability ([11]; 3 µM) was 1.04. For the same test system, the viability ([11]; 15 µM) was 0.969, the viability ([12]; 0.024 µM) was 0.684 and the viability ([12]; 0.12 µM) was 0.359. For the same test system, the viability ([12]; 0.6 µM) was 0.0924, the viability ([12]; 3 µM) was 0.0577 and the viability ([12]; 15 µM) was 0.0529. It also gave a viability ([13]; 0.016 µM) of 1.04, a viability ([13]; 0.08 µM) of 0.933 and a viability ([13]; 0.4 µM) of 0.852. For the same test system, the viability ([13]; 2 µM) was 0.688, the viability ([13]; 10 µM) was 0.0799 and the viability ([14]; 0.024 µM) was 1.1. The viability ([14]; 0.12 µM) was 1.09, the viability ([14]; 0.6 µM) was 1.1 and the viability ([14]; 3 µM) was 1.09. The viability ([14]; 15 µM) was 0.975, the viability ([15]; 0.03 µM) was 1 and the viability ([15]; 0.15 µM) was 0.8. The viability ([15]; 0.75 µM) was 0.94, the viability ([15]; 3.75 µM) was 0.783 and the viability ([15]; 18.76 µM) was 0.835.
